According to article PMC4468202, “Improved Visualization and Specific Binding for Metabotropic Glutamate Receptor Subtype 1 (mGluR1) Using [^11C]ITMM with Ultra-High Specific Activity in Small-Animal PET” (PLoS ONE, 2015):
Read-outs that look alike come from different tables or passages of the source.

How the values were obtained:
mGluR1 [1] = tested on: mGluR1; parameters: method as in PMID 23804329; conditions: cited from earlier work; for total distribution volume (V T): human brain
mGluR1 [2] = target: T1, mGluR1 (Rattus norvegicus, UniProt P23385); parameters: from tissue; host or cells: cerebellum homogenate; method as in PMID 22316010; conditions: affinity for mGluR1; cited from earlier work
[3] = Metabolite analysis: fraction of unchanged [^11C]ITMM in the plasma; format: in vivo, rat; conditions: for unchanged [^11C]ITMM in the plasma: the two SAs
Method: (§1) A bolus (0.5 mL) of [^11C]ITMM with conventional or ultra-high SA was injected for 10 s via a catheter inserted in the tail vein. Dynamic emission scans in three-dimensional list mode were performed for 90 min (10 s x 12 frames, 20 s x 3 frames, 30 s x 3 frames, 60 s x 3 frames, 150 s x 3 frames, and 300 s x 15 frames). For counting radioactivity, blood samples were manually acquired at intervals of 10 s (0.05 mL for 50 s), 1-min intervals (0.05 mL for 5 min), and then at 10 (0.05 mL), 15 (0.2 mL), 30 (0.3 mL), 60 (0.4 mL), and 90 min (0.5 mL) after the PET scan started. For metabolite analysis, six samples of blood were obtained at 1 (0.02 mL), 5 (0.02 mL), 15 (0.05 mL), 30 (0.1 mL), 60 (0.2 mL), and 90 min (0.3 mL) after the injection. Blood samples were centrifuged at 13,000g at 4°C to separate the plasma. Levels of radioactivity in the whole blood and plasma were counted using a 1480 Wizard auto-gamma scintillation counter (Perkin-Elmer, Waltham, MA, USA). The radioactivity was corrected for decay.
Metabolite analysis was performed as described previously. Briefly, whole blood samples were treated to separate the plasma, which was deproteinized with an equivalent amount of acetonitrile. An aliquot of the supernatant obtained from the plasma was analyzed by HPLC with a radiation detector [23]. Plasma protein binding was not determined in the present study. The time curves for the fraction of unchanged [^11C]ITMM in the plasma were fitted using three exponential equations, and subsequently used for kinetic analysis.

mGluR1 [4] = target: T1, mGluR1; test: Small-animal PET with [^11C]ITMM: time-activity curves, radioactive uptake (SUV) in brain regions; format: in vivo; parameters: from tissue; host or cells: living SD rat brain (in vivo PET)
Method: Subsequently, a SD rat was secured in a custom-designed chamber and placed in a small-animal PET scanner (Inveon, Siemens Medical Solutions, Knoxville, TN, USA). Body temperature was maintained using a 40°C water circulation system (T/Pump TP401, Gaymar Industries, Orchard Park, NY, USA). A 24-gauge intravenous catheter (Terumo Medical Products, Tokyo, Japan) was placed in the tail vein of the rat for a bolus injection.
as §1
PET dynamic images were reconstructed with filtered back projection using a Hunning filter with a Nyquist cut-off of 0.5 cycle/pixel. PET/MRI fused images were acquired by PMOD version 3.4 (PMOD Technologies, Zurich, Switzerland). To generate the time-activity curves (TACs) of specified brain regions, volumes of interest (VOIs) were drawn encompassing the cerebellum, hippocampus, thalamus, striatum, cingulate cortex, substantia nigra, and pons. The radioactivity was decay-corrected to the injection time and is expressed as the standardized uptake value (SUV), which was normalized to the injected radioactivity and body weight. SUV was calculated according to the following formula: SUV = (radioactivity per milliliter tissue / injected radioactivity) × gram body weight.

mGluR1 [5] = target: T1, mGluR1; test: Estimation of equilibrium state from tissue-to-plasma concentration ratios C t'(t)/C P'(t); format: in vivo; parameters: from tissue; host or cells: living SD rat brain (in vivo PET)
Method: Estimations of the equilibrium state of [^11C]ITMM in each brain region were obtained using averaged plasma input functions and averaged tissue TACs. Theoretical radioactive concentrations in each brain region (C t ’) and the plasma input function of [^11C]ITMM (C P ’) were estimated using averaged measurements extracted between 5 and 90 min after the injection and subjected to three exponential least square fitting [Radioactivity (t) = A*exp(-at) + B*exp(-bt) + C*exp(-ct)].
The estimations over 90 min after the injection were calculated by extrapolating based on the equation as described above. […]

[6] = cingulate cortex, conventional SA
[7] = cingulate cortex, ultra-high SA
[8] = substantia nigra, conventional SA
[9] = substantia nigra, ultra-high SA

T1 sequence (P23385 19-1199): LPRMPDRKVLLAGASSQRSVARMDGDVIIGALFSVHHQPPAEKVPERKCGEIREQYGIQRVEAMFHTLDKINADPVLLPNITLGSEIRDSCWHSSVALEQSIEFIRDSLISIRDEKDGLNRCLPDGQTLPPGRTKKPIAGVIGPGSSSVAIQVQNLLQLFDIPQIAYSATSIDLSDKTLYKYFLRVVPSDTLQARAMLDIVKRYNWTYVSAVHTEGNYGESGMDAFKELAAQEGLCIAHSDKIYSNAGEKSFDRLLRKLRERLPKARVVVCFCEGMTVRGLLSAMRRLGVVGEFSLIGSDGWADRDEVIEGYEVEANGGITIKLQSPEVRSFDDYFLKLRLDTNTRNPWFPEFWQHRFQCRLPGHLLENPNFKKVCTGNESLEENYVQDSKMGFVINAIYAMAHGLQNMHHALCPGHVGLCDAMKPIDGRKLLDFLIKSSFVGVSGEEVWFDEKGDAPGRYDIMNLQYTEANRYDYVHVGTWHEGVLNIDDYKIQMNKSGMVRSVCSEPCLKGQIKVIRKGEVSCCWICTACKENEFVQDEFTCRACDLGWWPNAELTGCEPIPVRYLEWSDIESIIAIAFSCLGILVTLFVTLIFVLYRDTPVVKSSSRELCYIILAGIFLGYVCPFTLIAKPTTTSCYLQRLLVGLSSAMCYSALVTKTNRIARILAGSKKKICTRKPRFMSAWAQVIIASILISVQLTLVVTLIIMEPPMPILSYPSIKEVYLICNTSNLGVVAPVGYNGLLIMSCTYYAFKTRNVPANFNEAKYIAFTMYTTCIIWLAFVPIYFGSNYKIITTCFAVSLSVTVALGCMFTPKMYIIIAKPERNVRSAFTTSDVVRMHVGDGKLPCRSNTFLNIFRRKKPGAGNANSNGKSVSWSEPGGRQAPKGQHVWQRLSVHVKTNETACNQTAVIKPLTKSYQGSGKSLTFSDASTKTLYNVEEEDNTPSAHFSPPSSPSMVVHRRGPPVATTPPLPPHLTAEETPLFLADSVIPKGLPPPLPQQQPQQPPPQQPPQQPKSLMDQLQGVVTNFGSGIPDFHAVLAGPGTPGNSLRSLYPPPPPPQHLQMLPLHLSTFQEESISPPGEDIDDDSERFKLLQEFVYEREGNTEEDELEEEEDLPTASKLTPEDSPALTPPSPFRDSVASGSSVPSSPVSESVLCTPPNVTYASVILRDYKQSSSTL

In the case of `CC(C)Nc1cc(-c2csc(N(C)C(=O)c3ccc(O[11CH3])cc3)n2)ncn1` [[^11C]ITMM, N-[4-[6-(isopropylamino)pyrimidin-4-yl]-1,3-thiazol-2-yl]-4-[^11C]methoxy-N-methyl-benzamide], the “[^11C]ITMM that reached the brain” value (mGluR1 [1]; healthy humans, first-in human PET study) is given as 0.001–0.004 % of the injection dose/mL, the “total distribution volume (V T)” value (mGluR1 [1]; cerebellum (mGluR1-rich region)) is given as 2.61 mL/cm^3 and the “total distribution volume (V T)” value (mGluR1 [1]; pons (mGluR1-negligible region)) is given as 0.52 mL/cm^3. The Ki (mGluR1 [2]) was 12.6 nM, the “Unchanged form in the plasma” value ([3]; 1 min after injection, conventional SA) was 95.2 ± 1.2% and the “Unchanged form in the plasma” value ([3]; 1 min after injection, ultra-high SA) was 97.3 ± 0.6%. For the same compound, the “Unchanged form in the plasma” value ([3]; 5 min after injection, conventional SA) was 74.0 ± 2.1%, the “Unchanged form in the plasma” value ([3]; 5 min after injection, ultra-high SA) was 77.1 ± 3.2% and the “Unchanged form in the plasma” value ([3]; 15 min after injection, conventional SA) was 53.7 ± 2.6%. For the same compound, the “unchanged [^11C]ITMM in the plasma” value ([3]; 15 min after injection) was “roughly 55%”, the “Unchanged form in the plasma” value ([3]; 15 min after injection, ultra-high SA) was 56.2 ± 4.0% and the “Unchanged form in the plasma” value ([3]; 30 min after injection, conventional SA) was 36.8 ± 2.6%. For the same compound, the “Unchanged form in the plasma” value ([3]; 30 min after injection, ultra-high SA) was 40.0 ± 4.0%, the “Unchanged form in the plasma” value ([3]; 60 min after injection, conventional SA) was 21.7 ± 2.0% and the “Unchanged form in the plasma” value ([3]; 60 min after injection, ultra-high SA) was 24.7 ± 2.9%. For the same compound, the “Unchanged form in the plasma” value ([3]; 90 min after injection, conventional SA) was 15.7 ± 1.3%, the “unchanged [^11C]ITMM in the plasma” value ([3]; 90 min after injection) was “roughly 15%” and the “Unchanged form in the plasma” value ([3]; 90 min after injection, ultra-high SA) was 18.2 ± 2.5%. It also gave an AUC (mGluR1 [4]; cerebellum, conventional SA) of 243.2 ± 9.2 SUV · min, a maximum uptake (mGluR1 [4]; cerebellum, conventional SA) of 3.0 SUV and an AUC (mGluR1 [4]; cerebellum, ultra-high SA) of 269.9 ± 15.8 SUV · min. The maximum uptake (mGluR1 [4]; cerebellum, ultra-high SA) was 3.4 SUV, the AUC (mGluR1 [4]; [6]) was 156.9 ± 5.3 SUV · min and the maximum uptake (mGluR1 [4]; [6]) was 2.0 SUV. The AUC (mGluR1 [4]; [7]) was 184.7 ± 11.1 SUV · min, the maximum uptake (mGluR1 [4]; [7]) was 2.3 SUV and the AUC (mGluR1 [4]; hippocampus, conventional SA) was 160.8 ± 4.6 SUV · min. It also gave a maximum uptake (mGluR1 [4]; hippocampus, conventional SA) of 2.0 SUV, an AUC (mGluR1 [4]; hippocampus, ultra-high SA) of 180.2 ± 10.9 SUV · min and a maximum uptake (mGluR1 [4]; hippocampus, ultra-high SA) of 2.2 SUV. For the same compound, the AUC (mGluR1 [4]; pons, conventional SA) was 56.0 ± 1.6 SUV · min, the maximum uptake (mGluR1 [4]; pons, conventional SA) was 0.9 SUV and the AUC (mGluR1 [4]; pons, ultra-high SA) was 62.7 ± 3.6 SUV · min. For the same compound, the maximum uptake (mGluR1 [4]; pons, ultra-high SA) was 0.9 SUV, the AUC (mGluR1 [4]; striatum, conventional SA) was 169.7 ± 6.0 SUV · min and the maximum uptake (mGluR1 [4]; striatum, conventional SA) was 2.1 SUV. The AUC (mGluR1 [4]; striatum, ultra-high SA) was 197.3 ± 11.1 SUV · min, the maximum uptake (mGluR1 [4]; striatum, ultra-high SA) was 2.4 SUV and the AUC (mGluR1 [4]; [8]) was 149.9 ± 6.7 SUV · min. It also gave a maximum uptake (mGluR1 [4]; [8]) of 1.8 SUV, an AUC (mGluR1 [4]; [9]) of 178.9 ± 10.8 SUV · min and a maximum uptake (mGluR1 [4]; [9]) of 2.2 SUV. For the same compound, the AUC (mGluR1 [4]; thalamus, conventional SA) was 188.4 ± 6.9 SUV · min, the maximum uptake (mGluR1 [4]; thalamus, conventional SA) was 2.3 SUV and the AUC (mGluR1 [4]; thalamus, ultra-high SA) was 214.2 ± 12.2 SUV · min. For the same compound, the maximum uptake (mGluR1 [4]; thalamus, ultra-high SA) was 2.6 SUV, the “delay of peak time of radioactivity” value (mGluR1 [4]; ultra-high SA compared with conventional SA, brain regions) was 4 to 10 min and the “bindings reached, of the equilibrium state” value (mGluR1 [5]; both SA conditions, all brain regions, 90 min PET) was 80–98%. For the same compound, the equilibrium times (mGluR1 [5]; both SA conditions, all brain regions, after the injection) was 100 to 150 min, the estimated equilibrium time (mGluR1 [5]; cerebellum, conventional SA) was 150 min and the “uptake of radioactivity reached, of equilibrium state” value (“uptake of radioactivity reached” for short) (mGluR1 [5]; cerebellum, conventional SA, 90 min PET) was 80%. The estimated equilibrium time (mGluR1 [5]; cerebellum, ultra-high SA) was 150 min, the “uptake of radioactivity reached” value (mGluR1 [5]; cerebellum, ultra-high SA, 90 min PET) was 82% and the estimated equilibrium time (mGluR1 [5]; [6]) was 100 min. For the same compound, the “uptake of radioactivity reached” value (mGluR1 [5]; cingulate cortex, conventional SA, 90 min PET) was 96%, the estimated equilibrium time (mGluR1 [5]; [7]) was 120 min and the “uptake of radioactivity reached” value (mGluR1 [5]; cingulate cortex, ultra-high SA, 90 min PET) was 91%. The estimated equilibrium time (mGluR1 [5]; hippocampus, conventional SA) was 120 min, the “uptake of radioactivity reached” value (mGluR1 [5]; hippocampus, conventional SA, 90 min PET) was 93% and the estimated equilibrium time (mGluR1 [5]; hippocampus, ultra-high SA) was 130 min. The “uptake of radioactivity reached” value (mGluR1 [5]; hippocampus, ultra-high SA, 90 min PET) was 89%, the estimated equilibrium time (mGluR1 [5]; pons, conventional SA) was 110 min and the “uptake of radioactivity reached” value (mGluR1 [5]; pons, conventional SA, 90 min PET) was 94%. For the same compound, the estimated equilibrium time (mGluR1 [5]; pons, ultra-high SA) was 100 min, the “uptake of radioactivity reached” value (mGluR1 [5]; pons, ultra-high SA, 90 min PET) was 98% and the estimated equilibrium time (mGluR1 [5]; striatum, conventional SA) was 120 min. For the same compound, the “uptake of radioactivity reached” value (mGluR1 [5]; striatum, conventional SA, 90 min PET) was 93%, the estimated equilibrium time (mGluR1 [5]; striatum, ultra-high SA) was 130 min and the “uptake of radioactivity reached” value (mGluR1 [5]; striatum, ultra-high SA, 90 min PET) was 90%. The estimated equilibrium time (mGluR1 [5]; [8]) was 110 min, the “uptake of radioactivity reached” value (mGluR1 [5]; substantia nigra, conventional SA, 90 min PET) was 94% and the estimated equilibrium time (mGluR1 [5]; [9]) was 100 min. For the same compound, the “uptake of radioactivity reached” value (mGluR1 [5]; substantia nigra, ultra-high SA, 90 min PET) was 98%, the estimated equilibrium time (mGluR1 [5]; thalamus, conventional SA) was 120 min and the “uptake of radioactivity reached” value (mGluR1 [5]; thalamus, conventional SA, 90 min PET) was 91%. For the same compound, the estimated equilibrium time (mGluR1 [5]; thalamus, ultra-high SA) was 140 min and the “uptake of radioactivity reached” value (mGluR1 [5]; thalamus, ultra-high SA, 90 min PET) was 87%.
